Laboratory results as given in PubChem BioAssay (NCI).
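Each compound was tested at five concentrations against cells in 96-well plates for 48 hours. TGI is the concentration that stops growth completely.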

Experiments:
Assay in all cases: NCI anticancer screen, dose series, 48 h
PC-3 prostate = test system: PC-3 prostate
M14 melanoma = test system: M14 melanoma
HS 578T breast = test system: HS 578T breast
NCI-H460 lung = test system: NCI-H460 lung
SNB-19 CNS = test system: SNB-19 CNS
NCI-H226 lung = test system: NCI-H226 lung
KM12 colon = test system: KM12 colon
MALME-3M melanoma = test system: MALME-3M melanoma
OVCAR-5 ovarian = test system: OVCAR-5 ovarian
MDA-N = test system: MDA-N
HT29 colon = test system: HT29 colon
HCT-15 colon = test system: HCT-15 colon
SF-295 CNS = test system: SF-295 CNS
SK-MEL-28 melanoma = test system: SK-MEL-28 melanoma
786-0 renal = test system: 786-0 renal
MCF7 breast = test system: MCF7 breast
MDA-MB-231 breast = test system: MDA-MB-231 breast
COLO 205 colon = test system: COLO 205 colon
T-47D breast = test system: T-47D breast
SW-620 colon = test system: SW-620 colon
SF-539 CNS = test system: SF-539 CNS
RPMI-8226 leukemia = test system: RPMI-8226 leukemia
RXF 393 renal = test system: RXF 393 renal
SR leukemia = test system: SR leukemia
U251 CNS = test system: U251 CNS
LOX IMVI melanoma = test system: LOX IMVI melanoma
IGROV1 ovarian = test system: IGROV1 ovarian
DU-145 prostate = test system: DU-145 prostate
MOLT-4 leukemia = test system: MOLT-4 leukemia
A549 NSCLC = test system: A549 NSCLC
MDA-MB-435 = test system: MDA-MB-435
HL-60(TB) leukemia = test system: HL-60(TB) leukemia
ACHN renal = test system: ACHN renal
HOP-62 NSCLC = test system: HOP-62 NSCLC
EKVX NSCLC = test system: EKVX NSCLC
NCI-H23 lung = test system: NCI-H23 lung
SN12C renal = test system: SN12C renal
OVCAR-8 ovarian = test system: OVCAR-8 ovarian
SNB-75 CNS = test system: SNB-75 CNS
HOP-92 NSCLC = test system: HOP-92 NSCLC
HCC-2998 colon = test system: HCC-2998 colon
SK-MEL-5 melanoma = test system: SK-MEL-5 melanoma
CAKI-1 renal = test system: CAKI-1 renal
NCI-H522 lung = test system: NCI-H522 lung
SF-268 CNS = test system: SF-268 CNS
BT-549 breast = test system: BT-549 breast
OVCAR-3 ovarian = test system: OVCAR-3 ovarian
OVCAR-4 ovarian = test system: OVCAR-4 ovarian
SK-OV-3 ovarian = test system: SK-OV-3 ovarian
HCT-116 colon = test system: HCT-116 colon
UO-31 renal = test system: UO-31 renal
NCI/ADR-RES ovarian = test system: NCI/ADR-RES ovarian
A498 renal = test system: A498 renal
UACC-62 melanoma = test system: UACC-62 melanoma
TK-10 renal = test system: TK-10 renal
K-562 leukemia = test system: K-562 leukemia
UACC-257 melanoma = test system: UACC-257 melanoma
SK-MEL-2 melanoma = test system: SK-MEL-2 melanoma
CCRF-CEM leukemia = test system: CCRF-CEM leukemia

## CC(=O)OCC1OC(n2c(-c3ccc(C)cc3)cc(-c3ccccc3)c(C#N)c2=S)C(OC(C)=O)C(OC(C)=O)C1OC(C)=O (configuration not stated)
PC-3 prostate
  TGI: > 100 µM
M14 melanoma
  TGI: > 100 µM
HS 578T breast
  TGI: > 100 µM
NCI-H460 lung
  TGI: > 100 µM
SNB-19 CNS
  TGI: > 100 µM
NCI-H226 lung
  TGI: > 100 µM
KM12 colon
  TGI: > 100 µM
MALME-3M melanoma
  TGI: > 100 µM
OVCAR-5 ovarian
  TGI: > 100 µM
MDA-N
  TGI: > 100 µM
HT29 colon
  TGI: > 100 µM
HCT-15 colon
  TGI: > 100 µM
SF-295 CNS
  TGI: > 100 µM
SK-MEL-28 melanoma
  TGI: > 100 µM
786-0 renal
  TGI: > 100 µM
MCF7 breast
  TGI: > 100 µM
MDA-MB-231 breast
  TGI: > 100 µM
COLO 205 colon
  TGI: > 100 µM
T-47D breast
  TGI: > 100 µM
SW-620 colon
  TGI: > 100 µM
SF-539 CNS
  TGI: > 100 µM
RPMI-8226 leukemia
  TGI: > 100 µM
RXF 393 renal
  TGI: > 100 µM
SR leukemia
  TGI: > 100 µM
U251 CNS
  TGI: > 100 µM
LOX IMVI melanoma
  TGI: > 100 µM
IGROV1 ovarian
  TGI: > 100 µM
DU-145 prostate
  TGI: > 100 µM
MOLT-4 leukemia
  TGI: > 100 µM
A549 NSCLC
  TGI: > 100 µM
MDA-MB-435
  TGI: > 100 µM
HL-60(TB) leukemia
  TGI: > 100 µM
ACHN renal
  TGI: > 100 µM
HOP-62 NSCLC
  TGI: > 100 µM
EKVX NSCLC
  TGI: > 100 µM
NCI-H23 lung
  TGI: > 100 µM
SN12C renal
  TGI: > 100 µM
OVCAR-8 ovarian
  TGI: > 100 µM
SNB-75 CNS
  TGI: > 100 µM
HOP-92 NSCLC
  TGI: > 100 µM
HCC-2998 colon
  TGI: > 100 µM
SK-MEL-5 melanoma
  TGI: > 100 µM
CAKI-1 renal
  TGI: > 100 µM
NCI-H522 lung
  TGI: > 100 µM
SF-268 CNS
  TGI: > 100 µM
BT-549 breast
  TGI: > 100 µM
OVCAR-3 ovarian
  TGI: > 100 µM
OVCAR-4 ovarian
  TGI: > 100 µM
SK-OV-3 ovarian
  TGI: > 100 µM
HCT-116 colon
  TGI: > 100 µM
UO-31 renal
  TGI: > 100 µM
NCI/ADR-RES ovarian
  TGI: > 100 µM
A498 renal
  TGI: > 100 µM
UACC-62 melanoma
  TGI: > 100 µM
TK-10 renal
  TGI: > 100 µM
K-562 leukemia
  TGI: > 100 µM

## CC1=C(C(=O)Nc2ccccc2)C2(CCCCC2)C(C#N)=C(SCC(=O)Nc2ccc(Br)cc2)N1
PC-3 prostate
  TGI: 7.96 µM
M14 melanoma
  TGI: 10.9 µM
HS 578T breast
  TGI: 44.9 µM
NCI-H460 lung
  TGI: 11.4 µM
SNB-19 CNS
  TGI: > 32.7 µM
NCI-H226 lung
  TGI: 23 µM
KM12 colon
  TGI: > 26 µM
MALME-3M melanoma
  TGI: 7.48 µM
UACC-257 melanoma
  TGI: > 43.4 µM
OVCAR-5 ovarian
  TGI: 14.6 µM
MDA-N
  TGI: 17.2 µM
HT29 colon
  TGI: 8.53 µM
HCT-15 colon
  TGI: 20.2 µM
SF-295 CNS
  TGI: 28.9 µM
SK-MEL-28 melanoma
  TGI: > 26.5 µM
786-0 renal
  TGI: 13.3 µM
MCF7 breast
  TGI: > 47.9 µM
MDA-MB-231 breast
  TGI: 27.1 µM
COLO 205 colon
  TGI: 4.53 µM
T-47D breast
  TGI: 92.5 µM
SW-620 colon
  TGI: > 100 µM
SF-539 CNS
  TGI: 32.9 µM
RPMI-8226 leukemia
  TGI: 7.11 µM
RXF 393 renal
  TGI: 14.1 µM
SR leukemia
  TGI: 6.11 µM
U251 CNS
  TGI: 15.3 µM
LOX IMVI melanoma
  TGI: 9.96 µM
IGROV1 ovarian
  TGI: 14.6 µM
DU-145 prostate
  TGI: > 100 µM
MOLT-4 leukemia
  TGI: 9 µM
A549 NSCLC
  TGI: 22.3 µM
MDA-MB-435
  TGI: 29.6 µM
SK-MEL-2 melanoma
  TGI: 6.6 µM
HL-60(TB) leukemia
  TGI: 13.7 µM
ACHN renal
  TGI: 19.8 µM
HOP-62 NSCLC
  TGI: 32.6 µM
EKVX NSCLC
  TGI: 7.81 µM
NCI-H23 lung
  TGI: 23.3 µM
CCRF-CEM leukemia
  TGI: 7.02 µM
SN12C renal
  TGI: 16.6 µM
OVCAR-8 ovarian
  TGI: 34.9 µM
SNB-75 CNS
  TGI: 30.3 µM
HOP-92 NSCLC
  TGI: 8.44 µM
HCC-2998 colon
  TGI: 10.4 µM
SK-MEL-5 melanoma
  TGI: 8.39 µM
CAKI-1 renal
  TGI: 17.6 µM
NCI-H522 lung
  TGI: 7.25 µM
SF-268 CNS
  TGI: 8.74 µM
BT-549 breast
  TGI: 33.4 µM
OVCAR-3 ovarian
  TGI: 15 µM
OVCAR-4 ovarian
  TGI: > 75.2 µM
SK-OV-3 ovarian
  TGI: 44.5 µM
HCT-116 colon
  TGI: 8.28 µM
UO-31 renal
  TGI: 2.76 µM
NCI/ADR-RES ovarian
  TGI: 27.3 µM
A498 renal
  TGI: 19.6 µM
UACC-62 melanoma
  TGI: > 87.3 µM
TK-10 renal
  TGI: > 45.4 µM
K-562 leukemia
  TGI: 23 µM

## Cc1ccc(S(=O)(=O)NNCNC(=O)c2ccccc2)cc1
PC-3 prostate
  TGI: > 100 µM
M14 melanoma
  TGI: > 100 µM
HS 578T breast
  TGI: > 100 µM
SNB-19 CNS
  TGI: > 100 µM
NCI-H226 lung
  TGI: > 100 µM
KM12 colon
  TGI: > 100 µM
MALME-3M melanoma
  TGI: > 100 µM
UACC-257 melanoma
  TGI: > 100 µM
OVCAR-5 ovarian
  TGI: > 100 µM
MDA-N
  TGI: > 100 µM
HT29 colon
  TGI: > 100 µM
HCT-15 colon
  TGI: > 100 µM
SF-295 CNS
  TGI: > 100 µM
SK-MEL-28 melanoma
  TGI: > 100 µM
786-0 renal
  TGI: > 100 µM
MCF7 breast
  TGI: > 100 µM
MDA-MB-231 breast
  TGI: > 100 µM
COLO 205 colon
  TGI: > 100 µM
T-47D breast
  TGI: > 100 µM
SW-620 colon
  TGI: > 100 µM
SF-539 CNS
  TGI: > 100 µM
RPMI-8226 leukemia
  TGI: > 100 µM
RXF 393 renal
  TGI: > 100 µM
SR leukemia
  TGI: 33.1 µM
U251 CNS
  TGI: > 100 µM
LOX IMVI melanoma
  TGI: > 100 µM
IGROV1 ovarian
  TGI: > 100 µM
DU-145 prostate
  TGI: > 100 µM
MOLT-4 leukemia
  TGI: > 100 µM
A549 NSCLC
  TGI: > 100 µM
MDA-MB-435
  TGI: > 100 µM
SK-MEL-2 melanoma
  TGI: > 100 µM
HL-60(TB) leukemia
  TGI: 48.2 µM
ACHN renal
  TGI: > 100 µM
HOP-62 NSCLC
  TGI: > 100 µM
EKVX NSCLC
  TGI: > 100 µM
NCI-H23 lung
  TGI: > 100 µM
CCRF-CEM leukemia
  TGI: 63.2 µM
SN12C renal
  TGI: > 100 µM
OVCAR-8 ovarian
  TGI: > 100 µM
SNB-75 CNS
  TGI: > 100 µM
HOP-92 NSCLC
  TGI: > 100 µM
HCC-2998 colon
  TGI: > 100 µM
SK-MEL-5 melanoma
  TGI: > 100 µM
CAKI-1 renal
  TGI: > 100 µM
NCI-H522 lung
  TGI: > 100 µM
SF-268 CNS
  TGI: > 100 µM
BT-549 breast
  TGI: > 100 µM
OVCAR-3 ovarian
  TGI: > 100 µM
OVCAR-4 ovarian
  TGI: > 100 µM
SK-OV-3 ovarian
  TGI: > 100 µM
HCT-116 colon
  TGI: > 100 µM
UO-31 renal
  TGI: > 100 µM
NCI/ADR-RES ovarian
  TGI: > 100 µM
UACC-62 melanoma
  TGI: > 100 µM
TK-10 renal
  TGI: > 100 µM
K-562 leukemia
  TGI: > 100 µM
